Measured values published in patent US20020006920A1, “Arylsulfonylamino hydroxamic acid derivatives” (priority 1999, published 2002).

`CC(C)(NS(=O)(=O)c1ccc(OCCC2CCCC2)cc1)C(=O)NO` [Example 12, 2-[4-(2-Cyclopentylethoxy)benzenesulfonylamino]-N-hydroxy-2-methyl-propionamide] and `CC(C)CCOc1ccc(S(=O)(=O)NC(C)(C)C(=O)NO)cc1` [Example 11, N-Hydroxy-2-methyl-2-[4-(3-methylbutoxy)benzenesulfonylamino]-propionamide] cannot be ordered by melting point: 126 to 127 °C for the first, 126.5 to 128 °C for the second.

First: COc1ccc(S(=O)(=O)NC(C)(C)C(=O)NO)cc1 [Example 9, N-Hydroxy-2-(4-methoxybenzenesulfonylamino)-2-methylpropionamide]
Second: CC(C)(NS(=O)(=O)c1ccc(-c2ccccn2)s1)C(=O)NO [Example 13, N-Hydroxy-2-methyl-2-(5-pyridin-2-ylthiophene-2-sulfonylamino)propionamide]
The melting point of the first is lower: 122 to 125 °C for the first, 165 to 166 °C for the second.

First: O=C(NO)C1(NS(=O)(=O)c2ccc(Oc3ccc(F)cc3)cc2)CC1 [Example 5, 1-[4-(4-Fluorophenoxy)benzenesulfonylamino]cyclopropane-1-carboxylic acid hydroxyamide]
Second: O=C(NO)C1(NS(=O)(=O)c2ccc(Oc3ccc(F)cc3)cc2)CCCCC1 [Example 4, 1-[4-(4-Fluorophenoxy)benzenesulfonylamino]cyclohexane-1-carboxylic acid hydroxyamide]
The melting point of the first is higher: 184 °C for the first, 174 °C for the second.
